# Laboratory results: patent publication US10828301B2, “2,4-pyrimidinediamine compounds and their uses” (Rigel Pharmaceuticals, Inc, priority 2002, dated 2020)
# Structures can show the parent of a compound that is named as a salt.
# Experiments:
# [1] = test system: cultured human mast cells (CHMC); assay: CHMC low cell density IgE activation: tryptase and LTC4 assays; assay type: cell-based; conditions: Homo sapiens, Mast cell, Low Density CHMC, anti-IgE activation, tryptase readout; read-out: CHMC anti-IgE Tryptase
# How it was run: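 Degranulation measured after 30 min anti-IgE challenge at 37° C of CHMC plated at 1000-1500 cells/well following 1 h preincubation. Readouts: LTC4 by ELISA on donor-specific diluted supernatants, and tryptase activity from a 30 min room-temperature substrate reaction.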
# [2] = test system: cultured human mast cells (CHMC); assay: CHMC low cell density ionomycin activation: tryptase assay; assay type: cell-based; conditions: Homo sapiens, Mast cell, Low Density CHMC, ionomycin activation, tryptase readout; read-out: CHMC Ionomycin Tryptase
Compound,IC50 [1] [nM],IC50 [2] [nM]
"Oc1cccc(Nc2ncc(F)c(NCCSCc3c(F)cccc3Cl)n2)c1 [Compound R926724, N4-[2-[(2-Chloro-6-fluorobenzyl)thio]ethyl]-5-fluoro-N2-(3-hydroxyphenyl)-2,4-pyrimidinediamine]",2060,> 10000
"Fc1cnc(Nc2ccc3[nH]ccc3c2)nc1Nc1ccc2c(c1)OCCO2 [Compound R926748, N4-(3,4-Ethylenedioxyphenyl)-5-fluoro-N2-[(1H)-indol-5-yl]-2,4-pyrimidinediamine]",345,> 10000
"Oc1cccc(Nc2nc(Nc3ccc4[nH]ccc4c3)ncc2F)c1 [Compound R926749, 5-Fluoro-N4-(3-hydroxyphenyl)-N2-[(1H)-indol-5-yl]-2,4-pyrimidinediamine]",472,> 10000
"Fc1cnc(Nc2ccc3cc[nH]c3c2)nc1Nc1ccc2c(c1)OCCO2 [Compound R926750, N4-(3,4-Ethylenedioxyphenyl)-5-fluoro-N2-[(1H)-indol-6-yl]-2,4-pyrimidinediamine]",361,> 10000
"Oc1cccc(Nc2nc(Nc3ccc4cc[nH]c4c3)ncc2F)c1 [Compound R926751, 5-Fluoro-N4-(3-hydroxyphenyl)-N2-[(1H)-indol-6-yl]-2,4-pyrimidinediamine]",598,> 10000
"OB(O)c1cccc(Nc2nc(Nc3cccc(O)c3)ncc2F)c1 [Compound R926755, 5-Fluoro-N4-(3-dihydroxyborylphenyl)-N2-(3-hydroxyphenyl)-2,4-pyrimidinediamine]",1690,> 10000
"OBc1cccc(Nc2nc(Nc3ccc4c(c3)OCCO4)ncc2F)c1 [Compound R926756, N2-(3,4-Ethylenedioxyphenyl)-5-fluoro-N4-(3-hydroxyborylphenyl)-2,4-pyrimidinediamine]",1360,> 10000
"COc1cc(Nc2ncc(F)c(Nc3cccc(O)c3)n2)cc(OC)c1OC [Compound R926761, 5-Fluoro-N4-(3-hydroxyphenyl)-N2-(3,4,5-trimethoxyphenyl)-2,4-pyrimidinediamine]",245,> 10000
"COc1cc(Nc2ncc(F)c(Nc3ccc4c(c3)OCCO4)n2)cc(OC)c1OC [Compound R926762, N4-(3,4-Ethylenedioxyphenyl)-5-fluoro-N2-(3,4,5-trimethoxyphenyl)-2,4-pyrimidinediamine]",386,> 10000
"Oc1c(Cl)cc(Nc2ncc(F)c(Nc3ccc4c(c3)OCCO4)n2)cc1Cl [Compound R926763, N4-(3,4-Ethylenedioxyphenyl)-5-fluoro-N2-(3,5-dichloro-4-hydroxyphenyl)-2,4-pyrimidinediamine]",195,> 10000
"CN(C)CCOc1cccc(Nc2ncc(F)c(Nc3ccc4c(c3)OCCO4)n2)c1 [Compound R926771, N2-[3-[2-(N, N-Dimethylamino)ethyloxy]phenyl]-N4-(3,4-Ethylenedioxyphenyl)-5-fluoro-2,4-pyrimidinediamine Hydrogen Chloride Salt]",2050,> 10000
"Oc1cccc(Nc2nc(Nc3ccc(-n4cnc(Cl)c4Cl)cc3)ncc2F)c1 [Compound R926777, N2-[4-(4,5-Dichloro-1H-imidazol-1-yl)phenyl]-5-fluoro-N4-(3-hydroxyphenyl)-2,4-pyrimidinediamine]",378,> 10000
"CC(C)c1ccc(Nc2ncc(F)c(Nc3cccc(O)c3)n2)cc1 [Compound R926778, 5-Fluoro-N4-(3-hydroxyphenyl)-N2-(4-isopropylphenyl)-2,4-pyrimidinediamine]",414,> 10000
"O=C(NCC(O)CO)c1cc2cc(Nc3ncc(F)c(Nc4ccc5c(c4)OCCO5)n3)ccc2o1 (centres unmarked) [Compound R926783, N2-[2-(N-2,3-Dihydroxypropylamino)carbonylbenzofuran-5-yl]-N4-(3,4-ethylenedioxyphenyl)-5-fluoro-2,4-pyrimidinediamine]",304,> 10000
"CC(=O)Nc1cccc(OCCCNc2ncc(F)c(Nc3ccc4c(c3)OCCO4)n2)c1 [Compound R926787, N2-[3-(3-Acetamidophenoxy)propyl]-N4-(3,4-ethylenedioxyphenyl)-5-fluoro-2,4-pyrimidinediamine]",5420,> 10000
"Fc1cnc(Nc2ccc(-n3cnc(Cl)c3Cl)cc2)nc1Nc1ccc2c(c1)OCCO2 [Compound R926788, N2-[4-(4,5-Dichloro-1H-imidazol-1-yl)phenyl]-N4-(3,4-ethylenedioxyphenyl)-5-fluoro-2,4-pyrimidinediamine]",336,6340
"COc1ccc(Nc2ncc(F)c(Nc3ccc4c(c3)OCCO4)n2)c(OC)c1 [Compound R926789, N2-(2,4-Dimethoxyphenyl)-N4-(3,4-ethylenedioxyphenyl)-5-fluoro-2,4-pyrimidinediamine]",2320,> 10000

# More lines, now with the values ahead:
IC50 [1] [nM],IC50 [2] [nM],Compound
462,7410,"CC(C)c1ccc(Nc2ncc(F)c(Nc3ccc4c(c3)OCCO4)n2)cc1 [Compound R926790, N4-(3,4-Ethylenedioxyphenyl)-5-fluoro-N2-(4-isopropylphenyl)-2,4-pyrimidinediamine]"
3200,> 10000,"Cc1cc(Nc2ncc(F)c(Nc3ccc4c(c3)OCCO4)n2)c(C)cc1O [Compound R926792, N2-(2,5-Dimethyl-4-hydroxyphenyl)-N4-(3,4-ethylenedioxyphenyl)-5-fluoro-2,4-pyrimidinediamine]"
1250,> 10000,"COc1cc(Nc2nc(Nc3cccc(O)c3)ncc2F)cc(OC)c1 [Compound R926802, N4-(3,5-Dimethoxyphenyl)-N2-(3-hydroxyphenyl)-5-fluoro-2,4-pyrimidinediamine]"
1540,> 10000,"CCOC(=O)c1cc2cccc(Nc3ncc(F)c(Nc4cc(OC)cc(OC)c4)n3)c2[nH]1 [Compound R926803, N4-(3,5-Dimethoxyphenyl)-N2-(2-ethoxycarbonylindol-7-yl)-5-fluoro-2,4-pyrimidinediamine]"
368,> 10000,"CCOC(=O)c1cc2cccc(Nc3cc(Nc4ccc5c(c4)OCCO5)c(F)cn3)c2[nH]1 [Compound R926808, N2-(2-Ethoxycarbonylindol-7-yl)-N4-(3,4-ethylenedioxyphenyl)-5-fluoro-2,4-pyridinediamine]"
152,> 10000,"Fc1cnc(Nc2cccc(-c3cnco3)c2)nc1Nc1ccc2c(c1)OCCO2 [Compound R926813, N4-(3,4-Ethylenedioxyphenyl)-5-fluoro-N2-[3-(1,3-oxazol-5-yl)phenyl]-2,4-pyrimidinediamine]"
1100,> 10000,"CCOC(=O)c1cc2cccc(Nc3cc(Nc4cccc(O)c4)c(F)cn3)c2[nH]1 [Compound R926814, N2-(2-Ethoxycarbonylindol-7-yl)-5-fluoro-N4-(3-hydroxyphenyl)-2,4-pyridinediamine]"
133,10000,"Oc1cccc(Nc2nc(Nc3cccc(-c4cnco4)c3)ncc2F)c1 [Compound R926831, 5-Fluoro-N4-(3-hydroxyphenyl)-N2-[3-(1,3-oxazol-5-yl)phenyl]-2,4-pyrimidinediamine]"
551,> 10000,"Oc1cccc(Nc2nc(Nc3cccc(-c4cc[nH]n4)c3)ncc2F)c1 [Compound R926841, 5-Fluoro-N4-(3-hydroxyphenyl)-N2-[3-(1H-pyrazol-3-yl)phenyl]-2,4-pyrimidinediamine]"
7730,> 10000,"Oc1cccc(Nc2nc(Nc3cccc(-c4nnn[nH]4)c3)ncc2F)c1 [Compound R926842, 5-Fluoro-N4-(3-hydroxyphenyl)-N2-[3-(tetrazol-5-yl)phenyl]-2,4-pyrimidinediamine]"
7370,> 10000,"Fc1cnc(Nc2cccc(-c3nnn[nH]3)c2)nc1Nc1ccc2c(c1)OCCO2 [Compound R926843, 5-Fluoro-N4-(3,4-ethylenedioxyphenyl)-N2-[3-(tetrazol-5-yl)phenyl]-2,4-pyrimidinediamine]"
2560,7810,"COc1ccc(Nc2ncc(F)c(Nc3ccc4c(c3)OCCO4)n2)c(C)c1 [Compound R926845, N4-(3,4-Ethylenedioxyphenyl)-5-fluoro-N2-(4-methoxy-2-methylphenyl)-2,4-pyrimidinediamine]"
1210,> 10000,"COc1cc(Nc2ncc(F)c(Nc3cccc(O)c3)n2)c(OC)cc1Cl [Compound R926857, N2-(4-Chloro-2,5-dimethoxyphenyl)-5-fluoro-N4-(3-hydroxyphenyl)-2,4-pyrimidinediamine]"
361,> 10000,"Oc1cccc(Nc2nc(Nc3cc(Cl)c(O)c(Cl)c3)ncc2F)c1 [Compound R926890, 5-Fluoro-N2-(3,5-dichloro-4-hydroxyphenyl)-N4-(3-hydroxyphenyl)-2,4-pyrimidinediamine]"
10000,> 10000,"Cc1cc(O)cc(N(c2ccc3c(c2)OCCO3)c2nc(N)ncc2F)c1 [Compound R926893, N4-(3,4-Ethylenedioxyphenyl)-5-fluoro-N4-(3-hydroxy-5-methylphenyl)-2,4-pyrimidinediamine]"
> 10000,> 10000,"Fc1cc(Nc2ncc(F)c(Nc3ccc4c(c3)OCCO4)n2)cc(C(F)(F)F)c1 [Compound R926894, N4-(3,4-Ethylenedioxyphenyl)-5-fluoro-N2-(3-fluoro-5-trifluoromethylphenyl)-2,4-pyrimidinediamine]"
339,> 10000,"Cc1cc(Nc2ncc(F)c(Nc3ccc4c(c3)OCCO4)n2)cc(C(F)(F)F)c1 [Compound R926895, N4-(3,4-Ethylenedioxyphenyl)-5-fluoro-N2-(3-methyl-5-trifluoromethylphenyl)-2,4-pyrimidinediamine]"
